Assay results as given in publication PMC6857626, “Potent bicyclic inhibitors of malarial cGMP-dependent protein kinase: approaches to combining improvements in cell potency, selectivity and structural novelty” (Bioorganic & Medicinal Chemistry Letters, 2019).
Where two headings read alike, the source gives them in different places.

Tests used:
[1] = biological target: PfPKG (Plasmodium falciparum, UniProt Q8I719); experiment: biochemical; conditions: for LLE (pIC50 – mLogD): PfPKG pIC50 minus measured logD; for IC50: biochemical assay, read-out: PfPKG pIC50 (converted)
Chain of PfPKG (Q8I719 whole entry): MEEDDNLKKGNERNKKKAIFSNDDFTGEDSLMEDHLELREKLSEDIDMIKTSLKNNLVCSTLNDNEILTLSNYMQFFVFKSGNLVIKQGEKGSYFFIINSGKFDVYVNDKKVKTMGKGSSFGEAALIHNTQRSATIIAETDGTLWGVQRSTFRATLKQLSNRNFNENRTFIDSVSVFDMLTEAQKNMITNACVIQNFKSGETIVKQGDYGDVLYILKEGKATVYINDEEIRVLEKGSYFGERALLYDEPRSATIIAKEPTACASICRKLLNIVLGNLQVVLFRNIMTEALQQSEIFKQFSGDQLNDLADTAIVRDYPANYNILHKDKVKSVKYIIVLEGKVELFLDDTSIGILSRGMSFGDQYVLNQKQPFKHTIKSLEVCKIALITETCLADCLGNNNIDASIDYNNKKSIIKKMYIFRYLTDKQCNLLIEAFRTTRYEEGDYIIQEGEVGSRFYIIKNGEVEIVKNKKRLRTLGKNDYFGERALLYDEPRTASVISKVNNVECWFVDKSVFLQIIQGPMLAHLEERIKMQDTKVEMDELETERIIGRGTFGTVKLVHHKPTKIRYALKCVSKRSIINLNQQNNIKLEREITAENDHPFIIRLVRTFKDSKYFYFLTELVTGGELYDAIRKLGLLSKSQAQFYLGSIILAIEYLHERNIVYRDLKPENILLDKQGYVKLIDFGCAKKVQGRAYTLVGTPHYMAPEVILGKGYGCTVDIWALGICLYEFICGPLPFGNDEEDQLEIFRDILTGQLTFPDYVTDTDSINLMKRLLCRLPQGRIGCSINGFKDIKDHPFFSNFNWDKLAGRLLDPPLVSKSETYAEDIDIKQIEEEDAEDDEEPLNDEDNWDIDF

[2] = Measured logD (shake flask); type: physicochemical; conditions: for mLogD: octanol/PBS
[3] = test system: Plasmodium falciparum; experiment: blood stage hypoxanthine incorporation (HXI) cell assay; type: cell-based; conditions: read-out: Pf HXI pEC50 (converted)
Text: [21] Full details on biochemical assay and anti-malarial hypoxanthine incorporation (cell based) assay procedures can be found in reference 16.

[4] = test system: HepG2 human liver-derived cells; experiment: in vitro cytotoxicity assay in HepG2 cells; type: cell-based; conditions: for EC50: Homo sapiens, read-out: HepG2 pEC50 (converted)
[5] = Kinetic solubility; type: physicochemical
Experimental: The kinetic solubility was measured by diluting a small amount of 10 mM DMSO stock into PBS pH7.4 in a filtration plate at a target concentration of 200 μM giving a final solution composition of 98:2 PBS:DMSO. Each compound was run in triplicate on the same plate with two standard compounds, verapamil and ketoconazole, included per plate. The filtration plate was shaken at 500 rpm for 90 minutes and then filtered under vacuum. The filtrate was sampled and diluted with a DMSO:PBS mixture in a flat bottomed UV plate to give a solution with a composition of PBS:DMSO 80:20. A dilution series for each compound was then created in flat bottomed UV plates in PBS:DMSO 80:20 with concentrations 200 μM, 100 μM, 50 μM, 25 μM, 12.5 μM & […]. The UV absorbance for these solutions was read across 230-400 nm at 1 nm intervals using a TECAN Safire II plate reader and a suitable UV wavelength chosen around the UV maximum of each compound.

[6] = biological target: T1, PKG1β(h) (Homo sapiens, UniProt Q13976); experiment: Millipore Kinase Profiler assay, PKG1β(h); type: biochemical; conditions: for pIC50: PKG1β(h); for activity against human orthologue of PKG: up to a top assay concentration of 1 µM
T1 construct: purchased Millipore (Kinase Profiler service, tested externally)
T1 sequence (Q13976 1-686 isoform Q13976-2): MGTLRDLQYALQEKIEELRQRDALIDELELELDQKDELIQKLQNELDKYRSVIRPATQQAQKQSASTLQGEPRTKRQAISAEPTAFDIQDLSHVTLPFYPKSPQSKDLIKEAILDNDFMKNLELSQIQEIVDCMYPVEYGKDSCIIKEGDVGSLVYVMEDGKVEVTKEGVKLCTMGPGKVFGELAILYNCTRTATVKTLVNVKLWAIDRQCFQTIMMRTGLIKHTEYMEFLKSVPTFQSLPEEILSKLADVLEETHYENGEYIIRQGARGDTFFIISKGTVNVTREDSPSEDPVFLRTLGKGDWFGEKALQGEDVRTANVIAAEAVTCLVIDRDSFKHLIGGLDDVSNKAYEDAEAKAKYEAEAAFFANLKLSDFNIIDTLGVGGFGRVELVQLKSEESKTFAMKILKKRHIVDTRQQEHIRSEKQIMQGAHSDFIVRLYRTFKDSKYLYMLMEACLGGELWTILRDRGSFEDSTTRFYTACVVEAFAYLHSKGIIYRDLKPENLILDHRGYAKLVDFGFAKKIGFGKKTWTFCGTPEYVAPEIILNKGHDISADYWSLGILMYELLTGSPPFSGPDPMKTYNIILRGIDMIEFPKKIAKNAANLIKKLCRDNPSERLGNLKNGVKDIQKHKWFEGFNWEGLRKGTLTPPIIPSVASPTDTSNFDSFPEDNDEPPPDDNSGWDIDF

[7] = test system: human kinase panel; experiment: Kinase selectivity profiling against a human kinase panel; type: biochemical; conditions: single 1 µM concentration
Experimental: [29] Kinase selectivity profiling was carried out at the MRC Protein Phosphorylation Unit at the University of Dundee, U.K. at a single concentration of 1 µM for all three compounds.

[8] = biological target: T2, PKG1α(h) (Homo sapiens, UniProt Q13976); experiment: Millipore Kinase Profiler assay, PKG1α(h); type: biochemical; conditions: for pIC50: PKG1α(h); for activity against human orthologue of PKG: up to a top assay concentration of 1 µM
T2 construct: purchased Millipore (Kinase Profiler service, tested externally)
T2 sequence (Q13976 1-671): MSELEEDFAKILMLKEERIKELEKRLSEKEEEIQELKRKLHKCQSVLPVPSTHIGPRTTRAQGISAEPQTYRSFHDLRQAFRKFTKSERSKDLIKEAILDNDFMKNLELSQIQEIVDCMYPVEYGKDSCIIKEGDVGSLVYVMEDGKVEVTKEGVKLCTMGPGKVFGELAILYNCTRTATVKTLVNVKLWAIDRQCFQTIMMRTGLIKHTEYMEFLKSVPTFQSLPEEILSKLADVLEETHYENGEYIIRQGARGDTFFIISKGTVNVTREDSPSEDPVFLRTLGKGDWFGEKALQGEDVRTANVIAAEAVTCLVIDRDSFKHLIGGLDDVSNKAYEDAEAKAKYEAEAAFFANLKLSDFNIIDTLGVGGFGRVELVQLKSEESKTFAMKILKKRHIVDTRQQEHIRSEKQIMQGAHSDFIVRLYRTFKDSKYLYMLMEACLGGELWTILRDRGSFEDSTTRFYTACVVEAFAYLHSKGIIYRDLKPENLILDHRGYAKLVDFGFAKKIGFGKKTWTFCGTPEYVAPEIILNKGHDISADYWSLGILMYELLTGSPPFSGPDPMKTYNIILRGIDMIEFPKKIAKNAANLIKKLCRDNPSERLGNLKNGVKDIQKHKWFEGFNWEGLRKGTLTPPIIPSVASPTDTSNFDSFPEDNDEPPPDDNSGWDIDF

[9] = mouse liver microsomal turnover; type: in vitro ADME; conditions: % remaining after 30 min incubation with mouse liver microsomes
Experimental: Microsomal turnover data was obtained using mouse liver microsomes (MLM) obtained from BD Biosciences. The compounds are pre-incubated at 37 °C for 5 minutes with the microsomes and the reaction was initiated by adding an equal volume of NADPH generating solution, also obtained from BD Biosciences. The final compound concentration in the incubation is 1 μM, and the microsomal protein concentration is 0.2 mg/mL. A sample is taken at t=0 and quenched with 2x volume of ice-cold methanol containing an internal standard reference compound (carbamazepine). The reaction is agitated at 37 °C for 30 minutes, when a further sample was taken and quenched in an identical fashion. The samples were centrifuged at 10000 rpm for 10 minutes and the supernatant taken for analysis in triplicate by LC-MS/MS (Agilent Technologies G6410 series, triple quadrupole with MM-ESI ion source) using optimised multiple reaction monitoring (MRM) scans and a standard column gradient on an Acquity UPLC BEH C8 1.7μm column, running acetonitrile and water with 0.05% acetic acid as the mobile phase. The % turnover is obtained by calculating the percentage difference of the peak areas, normalised to the internal standard, at t=0 and t=30. Verapamil is used as the standard compound for this assay.

[10] = blood stage hypoxanthine incorporation cell assay
[11] = HepG2, concentration at which half of cells remained viable at 48 h

SMILES	LLE (pIC50 – mLogD) [1]	IC50 [1] [nM]	mLogD [2]	EC50 [3, 10] [nM]	MLM % rem [9] [%]	further results
CC(C)Nc1nccc(-c2c(C3CC3)nc3cc(CN(C)C)ccn23)n1 [Compound 10]	4.4	43.7	3.0	–	–	–
CN1CCC(Nc2ccn3c(-c4ccnc(N)n4)c(-c4ccc(F)cc4)nc3c2)C1 (stereo not shown) [Compound 20]	6.0	8.51	2.1	851	–	–
CN1CCN(c2ccc3nc(-c4ccc(F)cc4)c(-c4ccnc(N)n4)n3c2)CC1 [Compound 23]	5.8	2.63	2.8	871	–	in vitro cytotoxicity (in words) [4]: significant activity
CNc1nccc(-c2c(-c3ccc(F)cc3)nc3cc(NCCN(C)C)ccn23)n1 [Compound 27]	6.4	2.75	2.2	525	93	Kin sol ([5]; 90 min, pH 7.4): 207 µM; in vitro cytotoxicity (in words) [4]: non-cytotoxic; EC50 [4, 11]: > 20000 nM; pIC50 [6]: < 6; activity against human orthologue of PKG [6]: no activity; selectivity against human kinase panel (in words) [7]: excellent selectivity profile; pIC50 [8]: < 6; activity against human orthologue of PKG [8]: no activity
CN1CCC(Nc2ccn3c(-c4ccnc(N)n4)c(-c4ccc(F)cc4)nc3c2)CC1 [Compound 24]	6.2	3.63	2.2	347	88	–
CN(C)CCNc1ccn2c(-c3ccnc(N)n3)c(-c3ccc(F)cc3)nc2c1 [Compound 26]	6.5	2.57	2.1	–	80	–
CN(C)Cc1ccn2c(-c3ccnc(N)n3)c(C3CC3)nc2c1 [Compound 9]	5.8	35.5	1.7	–	–	–
Cc1nc2cc(CN(C)C)ccn2c1-c1ccnc(N)n1 [Compound 7]	–	57.5	–	–	–	–
CN(C)Cc1cccn2c(-c3ccnc(N)n3)c(-c3ccc(F)cc3)nc12 [Compound 15]	5.9	29.5	–	–	–	logD at 12 h ([2]; octanol/phosphate buffered saline (PBS), read-out: mLogD): 1.6
CN1CCN(c2ccn3c(-c4ccnc(N)n4)c(-c4ccc(F)cc4)nc3c2)CC1 [Compound 22]	5.4	3.31	3.1	263	–	in vitro cytotoxicity (in words) [4]: did not
CN(C)Cc1ccn2c(-c3ccnc(Nc4ccc(N5CCN(C)CC5)cc4)n3)c(C3CC3)nc2c1 [Compound 12]	6.0	7.24	2.1	112	–	–
CN(C)Cc1ccc2nc(-c3ccc(F)cc3)c(-c3ccnc(N)n3)n2c1 [Compound 16]	5.0	51.3	2.3	–	–	–
CN(C)Cc1ccn2c(-c3ccnc(N)n3)c(C(F)(F)F)nc2c1 [Compound 8]	–	148	–	–	–	–
CN(C)CCOc1ccn2c(-c3ccnc(N)n3)c(-c3ccc(F)cc3)nc2c1 [Compound 25]	5.9	7.41	2.2	813	54	–
CN(C)CCCNc1ccc2nc(-c3ccc(F)cc3)c(-c3ccnc(N)n3)n2c1 [Compound 21]	5.7	12.6	2.2	–	–	–
CN(C)Cc1ccn2c(-c3ccnc(N)n3)c(-c3ccc(F)cc3)nc2c1 [Compound 2]	–	–	–	–	–	Kin sol ([5]; kinetic solubility, PBS pH7.4): 200 µM; EC50 ([4]; HepG2, 48 h): > 20000 nM; pIC50 [6]: < 6; activity against human orthologue of PKG [6]: no activity; EC50 [3]: 363 nM; pIC50 [8]: < 6; activity against human orthologue of PKG [8]: no activity
CN1CCN(c2ccc(Nc3nccc(-c4c(-c5ccc(F)cc5)nc5ccccn45)n3)cc2)CC1 [Compound 1]	–	–	–	–	65	EC50 [3]: 115 nM
CN(C)Cc1ccn2c(-c3ccnc(Nc4ccccn4)n3)c(C3CC3)nc2c1 [Compound 11]	–	8.71	2.5	1740	–	–
CN(C)CCc1ccn2c(-c3ccnc(N)n3)c(-c3ccc(F)cc3)nc2c1 [Compound 29]	5.8	20.4	1.9	1000	65	–
CN(C)Cc1ccn2c(-c3ccnc(Nc4ccc(N5CCNCC5)cc4)n3)c(C3CC3)nc2c1 [Compound 13]	6.8	4.47	1.5	200	53	Kin sol ([5]; 90 min, pH 7.4): 189 µM; in vitro cytotoxicity (in words) [4]: non-cytotoxic; EC50 [4, 11]: > 10000 nM; selectivity against human kinase panel (in words) [7]: decreased level of selectivity
